{
  "source": "paper PMC11876601",
  "about": "(Molecular Systems Biology, 2025)",
  "key": {"Suit2-07 cells": {"tested_on": "Suit2-07 cells", "test": "Cell proliferation assay, GEM + ATR inhibitor (Incucyte confluence, 72 h);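 for all read-outs here: Suit2-07 cells grown in 96-well plates at 37 °C, 5% CO2, raw 72 h confluence taken without normalizing to starting confluence, each experiment done in triplicate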", "assay_type": "cell-based, human", "conditions": "for EC50: Homo sapiens, experiment GEM (GEM alone, in the series of the ATRi named in column Drug); for Response: R1, in % (unit assumed)"}, "AsPC-1 cells": {"tested_on": "AsPC-1 cells", "test": "Cell proliferation assay, chemodrug + ATR inhibitor (Incucyte confluence, 72 h);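 for all read-outs here: underlying read-out for every value is AsPC-1 confluence after 72 h incubation at 37 °C and 5% CO2, divided by that well's starting confluence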", "conditions": "for Curve bottom / Curve top / Curve slope: AsPC1; for Curve bottom / Curve top: fitted curve, relative response; for Curve slope: fitted dose-response curve"}, "[1]": {"conditions": "Experiment GEM alone in the Berzosertib series"}, "[2]": {"conditions": "Experiment GEM alone in the Ceralasertib series"}, "[3]": {"conditions": "Experiment GEM alone in the Elimusertib series"}, "[4]": {"conditions": "Experiment GEM alone in the Gartisertib series"}},
  "note": "Several values for one entry are separate records, joined by “and”; a condition that tells them apart may be missing. Identical values can stand only once. Like-named read-outs stand apart in the source and are kept apart here.",
  "data": [
    {"compound": "Nc1ccn([C@@H]2O[C@H](CO)[C@@H](O)C2(F)F)c(=O)n1", "note": "[GEM, Gemcitabine]", "values": [
      {"measurement": "EC50", "setting": "Suit2-07 cells; 72 h, Suit2-07, -log10 of EC50 [M], read-out: pEC50 (converted)", "value": "8.32e-09", "unit": "M"},
      {"measurement": "EC50", "setting": "Suit2-07 cells; 72 h, Suit2-07, mean (one replicate), read-out: EC50 mean", "value": "8.26e-09", "unit": "M"},
      {"measurement": "EC50", "setting": "Suit2-07 cells; 72 h, Suit2-07, replicate R1, read-out: EC50", "value": "8.26e-09", "unit": "M"},
      {"measurement": "EC50", "setting": "Suit2-07 cells; Suit2-07, -log10 of EC50 [M], read-out: pEC50 (converted)", "value": "1.05e-08", "unit": "M"},
      {"measurement": "Response", "setting": "Suit2-07 cells; Suit2-07, GEM 1 nM, ATRi 0 nM (GEM)", "value": 97.46},
      {"measurement": "Response", "setting": "Suit2-07 cells; Suit2-07, GEM 3 nM, ATRi 0 nM (GEM)", "value": 93.41},
      {"measurement": "Response", "setting": "Suit2-07 cells; Suit2-07, GEM 10 nM, ATRi 0 nM (GEM)", "value": 45.15},
      {"measurement": "Response", "setting": "Suit2-07 cells; Suit2-07, GEM 30 nM, ATRi 0 nM (GEM)", "value": 20.11},
      {"measurement": "Response", "setting": "Suit2-07 cells; Suit2-07, GEM 3000 nM, ATRi 0 nM (GEM)", "value": 10.86},
      {"measurement": "Response", "setting": "Suit2-07 cells; Suit2-07, experiment GEM, GEM 1 nM, ATRi 0 nM", "value": "98.60 and 97.96 and 97.60"},
      {"measurement": "Response", "setting": "Suit2-07 cells; Suit2-07, experiment GEM, GEM 3 nM, ATRi 0 nM", "value": "96.04 and 96.69 and 98.44"},
      {"measurement": "Response", "setting": "Suit2-07 cells; Suit2-07, experiment GEM, GEM 10 nM, ATRi 0 nM", "value": "49.03 and 57.12 and 55.81"},
      {"measurement": "Response", "setting": "Suit2-07 cells; Suit2-07, experiment GEM, GEM 30 nM, ATRi 0 nM", "value": "23.93 and 25.24 and 25.44"},
      {"measurement": "Response", "setting": "Suit2-07 cells; Suit2-07, experiment GEM, GEM 100 nM, ATRi 0 nM", "value": 15.01},
      {"measurement": "Response", "setting": "Suit2-07 cells; Suit2-07, experiment GEM, GEM 300 nM, ATRi 0 nM", "value": 14.46},
      {"measurement": "Response", "setting": "Suit2-07 cells; Suit2-07, experiment GEM, GEM 1000 nM, ATRi 0 nM", "value": 10.89},
      {"measurement": "Response", "setting": "Suit2-07 cells; Suit2-07, experiment GEM, GEM 3000 nM, ATRi 0 nM", "value": 10.34},
      {"measurement": "Curve bottom", "setting": "AsPC-1 cells; [1]", "value": "1.01 and 1.02"},
      {"measurement": "Curve top", "setting": "AsPC-1 cells; [1]", "value": "0.52 and 0.50"},
      {"measurement": "Curve bottom", "setting": "AsPC-1 cells; [2]", "value": "0.98 and 0.99"},
      {"measurement": "Curve top", "setting": "AsPC-1 cells; [2]", "value": "0.56 and 0.44 and 0.46"},
      {"measurement": "Curve bottom", "setting": "AsPC-1 cells; [3]", "value": "1.00 and 0.96 and 1.04"},
      {"measurement": "Curve top", "setting": "AsPC-1 cells; [3]", "value": "0.42 and 0.43 and 0.44"},
      {"measurement": "Curve slope", "setting": "AsPC-1 cells; [3]", "value": "1.10 and 1.63 and 1.11"},
      {"measurement": "Curve bottom", "setting": "AsPC-1 cells; [4]", "value": "0.99 and 0.98 and 1.02"},
      {"measurement": "Curve top", "setting": "AsPC-1 cells; [4]", "value": "0.53 and 0.46 and 0.43"},
      {"measurement": "Curve slope", "setting": "AsPC-1 cells; [4]", "value": "0.94 and 1.48 and 1.05"},
      {"measurement": "Raw data (confluence at 72 h/confluence at 0 h)", "setting": "AsPC-1 cells; Berzosertib experiment, replicate R3, titrated drug dose 1 nM", "value": 3.42},
      {"measurement": "Raw data (confluence at 72 h/confluence at 0 h)", "setting": "AsPC-1 cells; Berzosertib experiment, replicate R3, titrated drug dose 3 nM", "value": 3.51},
      {"measurement": "Raw data (confluence at 72 h/confluence at 0 h)", "setting": "AsPC-1 cells; Berzosertib experiment, replicate R3, titrated drug dose 10 nM", "value": 3.46},
      {"measurement": "Raw data (confluence at 72 h/confluence at 0 h)", "setting": "AsPC-1 cells; Berzosertib experiment, replicate R3, titrated drug dose 30 nM", "value": 3.01},
      {"measurement": "Raw data (confluence at 72 h/confluence at 0 h)", "setting": "AsPC-1 cells; Berzosertib experiment, replicate R3, titrated drug dose 100 nM", "value": 2.04},
      {"measurement": "Raw data (confluence at 72 h/confluence at 0 h)", "setting": "AsPC-1 cells; Berzosertib experiment, replicate R1, titrated drug dose 1 nM", "value": 3.13},
      {"measurement": "Raw data (confluence at 72 h/confluence at 0 h)", "setting": "AsPC-1 cells; Berzosertib experiment, replicate R1, titrated drug dose 3 nM", "value": 3.29},
      {"measurement": "Raw data (confluence at 72 h/confluence at 0 h)", "setting": "AsPC-1 cells; Berzosertib experiment, replicate R1, titrated drug dose 10 nM", "value": 2.93},
      {"measurement": "Raw data (confluence at 72 h/confluence at 0 h)", "setting": "AsPC-1 cells; Berzosertib experiment, replicate R1, titrated drug dose 30 nM", "value": 2.52},
      {"measurement": "Raw data (confluence at 72 h/confluence at 0 h)", "setting": "AsPC-1 cells; Berzosertib experiment, replicate R1, titrated drug dose 100 nM", "value": 2.11},
      {"measurement": "Raw data (confluence at 72 h/confluence at 0 h)", "setting": "AsPC-1 cells; Berzosertib experiment, replicate R1, titrated drug dose 300 nM", "value": 1.92},
      {"measurement": "Raw data (confluence at 72 h/confluence at 0 h)", "setting": "AsPC-1 cells; Berzosertib experiment, replicate R2, titrated drug dose 1 nM", "value": 3.67},
      {"measurement": "Raw data (confluence at 72 h/confluence at 0 h)", "setting": "AsPC-1 cells; Berzosertib experiment, replicate R2, titrated drug dose 3 nM", "value": 3.44},
      {"measurement": "Raw data (confluence at 72 h/confluence at 0 h)", "setting": "AsPC-1 cells; Berzosertib experiment, replicate R2, titrated drug dose 10 nM", "value": 3.56},
      {"measurement": "Raw data (confluence at 72 h/confluence at 0 h)", "setting": "AsPC-1 cells; Berzosertib experiment, replicate R2, titrated drug dose 30 nM", "value": 3.03},
      {"measurement": "Raw data (confluence at 72 h/confluence at 0 h)", "setting": "AsPC-1 cells; Ceralasertib experiment, replicate R1, titrated drug dose 1 nM", "value": 2.79},
      {"measurement": "Raw data (confluence at 72 h/confluence at 0 h)", "setting": "AsPC-1 cells; Ceralasertib experiment, replicate R1, titrated drug dose 3 nM", "value": 3.19},
      {"measurement": "Raw data (confluence at 72 h/confluence at 0 h)", "setting": "AsPC-1 cells; Ceralasertib experiment, replicate R1, titrated drug dose 10 nM", "value": 2.64},
      {"measurement": "Raw data (confluence at 72 h/confluence at 0 h)", "setting": "AsPC-1 cells; Ceralasertib experiment, replicate R1, titrated drug dose 30 nM", "value": 2.39},
      {"measurement": "Raw data (confluence at 72 h/confluence at 0 h)", "setting": "AsPC-1 cells; Ceralasertib experiment, replicate R1, titrated drug dose 100 nM", "value": 2.12},
      {"measurement": "Raw data (confluence at 72 h/confluence at 0 h)", "setting": "AsPC-1 cells; Ceralasertib experiment, replicate R2, titrated drug dose 1 nM", "value": 3.88},
      {"measurement": "Raw data (confluence at 72 h/confluence at 0 h)", "setting": "AsPC-1 cells; Ceralasertib experiment, replicate R2, titrated drug dose 3 nM", "value": 3.93},
      {"measurement": "Raw data (confluence at 72 h/confluence at 0 h)", "setting": "AsPC-1 cells; Ceralasertib experiment, replicate R2, titrated drug dose 10 nM", "value": 3.66},
      {"measurement": "Raw data (confluence at 72 h/confluence at 0 h)", "setting": "AsPC-1 cells; Ceralasertib experiment, replicate R2, titrated drug dose 30 nM", "value": 3.19},
      {"measurement": "Raw data (confluence at 72 h/confluence at 0 h)", "setting": "AsPC-1 cells; Ceralasertib experiment, replicate R2, titrated drug dose 100 nM", "value": 2.36},
      {"measurement": "Raw data (confluence at 72 h/confluence at 0 h)", "setting": "AsPC-1 cells; Ceralasertib experiment, replicate R2, titrated drug dose 300 nM", "value": 1.88},
      {"measurement": "Raw data (confluence at 72 h/confluence at 0 h)", "setting": "AsPC-1 cells; Ceralasertib experiment, replicate R3, titrated drug dose 1 nM", "value": 3.42},
      {"measurement": "Raw data (confluence at 72 h/confluence at 0 h)", "setting": "AsPC-1 cells; Ceralasertib experiment, replicate R3, titrated drug dose 3 nM", "value": 3.64},
      {"measurement": "Raw data (confluence at 72 h/confluence at 0 h)", "setting": "AsPC-1 cells; Experiment (ATRi) Elimusertib, replicate R1, drug dose (titrated) 1 nM", "value": 3.45},
      {"measurement": "Raw data (confluence at 72 h/confluence at 0 h)", "setting": "AsPC-1 cells; Experiment (ATRi) Elimusertib, replicate R1, drug dose (titrated) 3 nM", "value": 3.34},
      {"measurement": "Raw data (confluence at 72 h/confluence at 0 h)", "setting": "AsPC-1 cells; Experiment (ATRi) Elimusertib, replicate R1, drug dose (titrated) 10 nM", "value": 3.17}
    ]}
  ]
}
